Laboratory results reported in ChEMBL document CHEMBL1147331, “Cytotoxic and antimalarial bisbenzylisoquinoline alkaloids from Stephania erecta” (J Nat Prod, 1993).
Converted amounts (≈) assume the structure as drawn.

Key:
[1] = Selectivity index, ratio of ED50 for human LNCaP cells to ED50 for chloroquine-resistant Plasmodium falciparum W2; format: toxicity, cell-based; settings: read-out: Ratio ED50
[2] = Selectivity index, ratio of ED50 for human KB cells to ED50 for chloroquine-resistant Plasmodium falciparum W2; format: toxicity, cell-based; settings: read-out: Ratio ED50
[3] = Selectivity index, ratio of ED50 for human HT1080 cells to ED50 for chloroquine-sensitive Plasmodium falciparum D6; format: toxicity, cell-based, HT-1080; settings: read-out: Ratio ED50
[4] = Selectivity index, ratio of ED50 for human ZR-75-1 cells to ED50 for chloroquine-resistant Plasmodium falciparum W2; format: toxicity, cell-based; settings: read-out: Ratio ED50
[5] = Cytotoxicity against human LNCAP cells after 3 days by sulforhodamine B assay; format: cell-based; settings: read-out: ED50
in vitro [6] = settings: mouse, P388 cells
Description: Selectivity index, ratio of ED50 for mice (Mus musculus) P388 cells to ED50 for chloroquine-resistant Plasmodium falciparum W2

[7] = Selectivity index, ratio of ED50 for human MEL2 cells to ED50 for chloroquine-sensitive Plasmodium falciparum D6; format: toxicity, cell-based; settings: read-out: Ratio ED50
[8] = Selectivity index, ratio of ED50 for human HT1080 cells to ED50 for chloroquine-resistant Plasmodium falciparum W2; format: toxicity, cell-based, HT-1080; settings: read-out: Ratio ED50
[9] = Selectivity index, ratio of ED50 for human KB-V1 cells to ED50 for chloroquine-sensitive Plasmodium falciparum D6; format: toxicity, cell-based; settings: read-out: Ratio ED50
[10] = Selectivity index, ratio of ED50 for human LNCaP cells to ED50 for chloroquine-sensitive Plasmodium falciparum D6; format: toxicity, cell-based; settings: read-out: Ratio ED50
[11] = Selectivity index, ratio of ED50 for human KB-V1 cells to ED50 for chloroquine-resistant Plasmodium falciparum W2; format: toxicity, cell-based; settings: read-out: Ratio ED50
[12] = Selectivity index, ratio of ED50 for human BCA1 cells to ED50 for chloroquine-resistant Plasmodium falciparum W2; format: toxicity, cell-based; settings: read-out: Ratio ED50
in vitro [13] = settings: human, A431 cells
Description: Selectivity index, ratio of ED50 for human A431 cells to ED50 for chloroquine-sensitive Plasmodium falciparum D6

[14] = Selectivity index, ratio of ED50 for human BCA1 cells to ED50 for chloroquine-sensitive Plasmodium falciparum D6; format: toxicity, cell-based; settings: read-out: Ratio ED50
[15] = Selectivity index, ratio of ED50 for human MEL2 cells to ED50 for chloroquine-resistant Plasmodium falciparum W2; format: toxicity, cell-based; settings: read-out: Ratio ED50
[16] = Cytotoxicity against mouse P388 cells after 2 days by sulforhodamine B assay; format: cell-based; settings: read-out: ED50
[17] = Cytotoxicity against human KB cells after 3 days by sulforhodamine B assay; format: cell-based; settings: read-out: ED50
[18] = Cytotoxicity against human ZR-75-1 cells after 3 days by sulforhodamine B assay; format: cell-based; settings: read-out: ED50
[19] = Cytotoxicity against human Col1 cells after 3 days by sulforhodamine B assay; format: cell-based; settings: read-out: ED50
[20] = Selectivity index, ratio of ED50 for human COL1 cells to ED50 for chloroquine-resistant Plasmodium falciparum W2; format: toxicity, cell-based; settings: read-out: Ratio ED50
[21] = Selectivity index, ratio of ED50 for human KB cells to ED50 for chloroquine-sensitive Plasmodium falciparum D6; format: toxicity, cell-based; settings: read-out: Ratio ED50
Plasmodium falciparum [22] = experiment: Antimalarial activity after 24 hrs against chloroquine-resistant Plasmodium falciparum W2 infected type A+ human erythrocytes by [3H]hypoxanthine uptake; format: functional; settings: read-out: ED50 (the source's name)
Plasmodium falciparum [23] = experiment: Antimalarial activity after 24 hrs against chloroquine-sensitive Plasmodium falciparum D6 infected type A+ human erythrocytes by [3H]hypoxanthine uptake; format: functional; settings: read-out: ED50 (the source's name)
[24] = Cytotoxicity against human HT1080 cells after 3 days by sulforhodamine B assay; format: cell-based, HT-1080; settings: read-out: ED50
[25] = Cytotoxicity against human KBV1 cells after 3 days by sulforhodamine B assay; format: cell-based, KB-V1; settings: read-out: ED50
in vitro [26] = settings: human, A431 cells; remark: listed apart in the source
Description: Selectivity index, ratio of ED50 for human A431 cells to ED50 for chloroquine-resistant Plasmodium falciparum W2

[27] = Selectivity index, ratio of ED50 for human LUC1 cells to ED50 for chloroquine-resistant Plasmodium falciparum W2; format: toxicity, cell-based; settings: read-out: Ratio ED50
in vitro [28] = settings: mouse, P388 cells; remark: listed apart in the source
Description: Selectivity index, ratio of ED50 for mice (Mus musculus) P388 cells to ED50 for chloroquine-sensitive Plasmodium falciparum D6

[29] = Cytotoxicity against human LUC1 cells after 3 days by sulforhodamine B assay; format: cell-based; settings: read-out: ED50
[30] = Cytotoxicity against human BCA1 cells after 3 days by sulforhodamine B assay; format: cell-based; settings: read-out: ED50
[31] = Selectivity index, ratio of ED50 for human COL1 cells to ED50 for chloroquine-sensitive Plasmodium falciparum D6; format: toxicity, cell-based; settings: read-out: Ratio ED50
[32] = Selectivity index, ratio of ED50 for human ZR-75-1 cells to ED50 for chloroquine-sensitive Plasmodium falciparum D6; format: toxicity, cell-based; settings: read-out: Ratio ED50
[33] = Selectivity index, ratio of ED50 for human LUC1 cells to ED50 for chloroquine-sensitive Plasmodium falciparum D6; format: toxicity, cell-based; settings: read-out: Ratio ED50
[34] = Cytotoxicity against human A431 cells after 3 days by sulforhodamine B assay; format: cell-based, A-431; settings: read-out: ED50
[35] = Cytotoxicity against human SK-MEL-2 cells after 3 days by sulforhodamine B assay; format: cell-based; settings: read-out: ED50

| SMILES | selectivity ratio [1] | selectivity ratio [2] | selectivity ratio [3] | selectivity ratio [4] | CC50 at 72 h [5] | selectivity ratio (in vitro [6]) | selectivity ratio [7] | selectivity ratio [8] | selectivity ratio [9] | selectivity ratio [10] | selectivity ratio [11] | selectivity ratio [12] | selectivity ratio (in vitro [13]) | selectivity ratio [14] | selectivity ratio [15] | CC50 at 48 h [16] | CC50 at 72 h [17] | CC50 at 72 h [18] | CC50 at 72 h [19] | selectivity ratio [20] | further results |
| --- | --- | --- | --- | --- | --- | --- | --- | --- | --- | --- | --- | --- | --- | --- | --- | --- | --- | --- | --- | --- | --- |
| COc1ccc2cc1Oc1ccc(cc1)C[C@H]1c3cc(c(OC)cc3CCN1C)Oc1c(OC)c(OC)cc3c1[C@@H](C2)N(C)CC3 | 172 | 121 | 67 | 92 | 9.4 µg/mL (≈ 15.1 µM) | 103 | 118 | 202 | 9 | 57 | 28 | 99 | 51 | 33 | 357 | 5.6 µg/mL (≈ 8.99 µM) | 6.6 µg/mL (≈ 10.6 µM) | 5 µg/mL (≈ 8.03 µM) | 10.5 µg/mL (≈ 16.9 µM) | 192 | selectivity ratio [21]: 40; EC50 (Plasmodium falciparum [22]): 0.0546 µg/mL (≈ 0.0877 µM); EC50 (Plasmodium falciparum [23]): 0.165 µg/mL (≈ 0.265 µM); CC50 at 72 h [24]: 11 µg/mL (≈ 17.7 µM); CC50 at 72 h [25]: 1.5 µg/mL (≈ 2.41 µM); selectivity ratio (in vitro [26]): 154; selectivity ratio [27]: 183; selectivity ratio (in vitro [28]): 34; CC50 at 72 h [29]: 10 µg/mL (≈ 16.1 µM); CC50 at 72 h [30]: 5.4 µg/mL (≈ 8.67 µM); selectivity ratio [31]: 64; selectivity ratio [32]: 30; selectivity ratio [33]: 61; CC50 at 72 h [34]: 8.4 µg/mL (≈ 13.5 µM); CC50 at 72 h [35]: 19.5 µg/mL (≈ 31.3 µM) |
| COc1ccc2cc1Oc1ccc(cc1)C[C@H]1c3cc(c(OC)cc3CCN1C)Oc1c(OC)c(OC)cc3c1[C@@H](C2)NCC3 | 91 | 139 | 114 | 40 | 4.1 µg/mL (≈ 6.74 µM) | 104 | 124 | 166 | 42 | 62 | 62 | 97 | 71 | 67 | 181 | 4.7 µg/mL (≈ 7.72 µM) | 6.3 µg/mL (≈ 10.3 µM) | 1.8 µg/mL (≈ 2.96 µM) | 7.6 µg/mL (≈ 12.5 µM) | 168 | selectivity ratio [21]: 95; EC50 (Plasmodium falciparum [22]): 0.0453 µg/mL (≈ 0.0744 µM); EC50 (Plasmodium falciparum [23]): 0.0661 µg/mL (≈ 0.109 µM); CC50 at 72 h [24]: 7.5 µg/mL (≈ 12.3 µM); CC50 at 72 h [25]: 2.8 µg/mL (≈ 4.6 µM); selectivity ratio (in vitro [26]): 104; selectivity ratio [27]: 216; selectivity ratio (in vitro [28]): 71; CC50 at 72 h [29]: 9.8 µg/mL (≈ 16.1 µM); CC50 at 72 h [30]: 4.4 µg/mL (≈ 7.23 µM); selectivity ratio [31]: 115; selectivity ratio [32]: 27; selectivity ratio [33]: 148; CC50 at 72 h [34]: 4.7 µg/mL (≈ 7.72 µM); CC50 at 72 h [35]: 8.2 µg/mL (≈ 13.5 µM) |
| COc1ccc2cc1Oc1ccc(cc1)C[C@H]1c3c(cc(OC)c4c3Oc3cc5c(cc3O4)CCN=C5C2)CCN1C | 8 | 11 | 7 | 3 | 2 µg/mL (≈ 3.57 µM) | 12 | 32 | 8 | 22 | 7 | 27 | 18 | 20 | 15 | 39 | 3.1 µg/mL (≈ 5.53 µM) | 2.8 µg/mL (≈ 4.99 µM) | 0.7 µg/mL (≈ 1.25 µM) | 5 µg/mL (≈ 8.92 µM) | 20 | selectivity ratio [21]: 9; EC50 (Plasmodium falciparum [22]): 0.256 µg/mL (≈ 0.457 µM); EC50 (Plasmodium falciparum [23]): 0.307 µg/mL (≈ 0.547 µM); CC50 at 72 h [24]: 2.1 µg/mL (≈ 3.75 µM); CC50 at 72 h [25]: 6.8 µg/mL (≈ 12.1 µM); selectivity ratio (in vitro [26]): 23; selectivity ratio [27]: 7; selectivity ratio (in vitro [28]): 10; CC50 at 72 h [29]: 1.7 µg/mL (≈ 3.03 µM); CC50 at 72 h [30]: 4.6 µg/mL (≈ 8.2 µM); selectivity ratio [31]: 16; selectivity ratio [32]: 2; selectivity ratio [33]: 6; CC50 at 72 h [34]: 6 µg/mL (≈ 10.7 µM); CC50 at 72 h [35]: 9.9 µg/mL (≈ 17.7 µM) |
| COc1ccc2cc1Oc1ccc(cc1)C[C@H]1c3cc(c(OC)cc3CCN1C)Oc1c(O)c(OC)cc3c1[C@@H](C2)N(C)CC3 | 26 | 28 | 83 | 11 | 5.9 µg/mL (≈ 9.69 µM) | 32 | 124 | 44 | 31 | 49 | 16 | 22 | 41 | 42 | 65 | 7.4 µg/mL (≈ 12.2 µM) | 6.5 µg/mL (≈ 10.7 µM) | 2.5 µg/mL (≈ 4.11 µM) | 11.1 µg/mL (≈ 18.2 µM) | 48 | selectivity ratio [21]: 54; EC50 (Plasmodium falciparum [22]): 0.23 µg/mL (≈ 0.377 µM); EC50 (Plasmodium falciparum [23]): 0.121 µg/mL (≈ 0.198 µM); CC50 at 72 h [24]: 10 µg/mL (≈ 16.4 µM); CC50 at 72 h [25]: 3.7 µg/mL (≈ 6.08 µM); selectivity ratio (in vitro [26]): 21; selectivity ratio [27]: 42; selectivity ratio (in vitro [28]): 61; CC50 at 72 h [29]: 9.7 µg/mL (≈ 15.9 µM); CC50 at 72 h [30]: 5 µg/mL (≈ 8.21 µM); selectivity ratio [31]: 92; selectivity ratio [32]: 21; selectivity ratio [33]: 80; CC50 at 72 h [34]: 4.9 µg/mL (≈ 8.05 µM); CC50 at 72 h [35]: 14.9 µg/mL (≈ 24.5 µM) |
| COc1ccc2cc1Oc1ccc(cc1)C[C@H]1c3c(cc(OC)c(O)c3Oc3cc4c(cc3OC)CCN[C@@H]4C2)CCN1C | 26 | 26 | 110 | 8 | 5.8 µg/mL (≈ 9.75 µM) | 9 | 213 | 31 | 35 | 92 | 10 | 21 | 132 | 73 | 60 | 2 µg/mL (≈ 3.36 µM) | 5.8 µg/mL (≈ 9.75 µM) | 1.8 µg/mL (≈ 3.03 µM) | 10.3 µg/mL (≈ 17.3 µM) | 46 | selectivity ratio [21]: 92; EC50 (Plasmodium falciparum [22]): 0.223 µg/mL (≈ 0.375 µM); EC50 (Plasmodium falciparum [23]): 0.063 µg/mL (≈ 0.106 µM); CC50 at 72 h [24]: 6.9 µg/mL (≈ 11.6 µM); CC50 at 72 h [25]: 2.2 µg/mL (≈ 3.7 µM); selectivity ratio (in vitro [26]): 37; selectivity ratio [27]: 40; selectivity ratio (in vitro [28]): 32; CC50 at 72 h [29]: 9 µg/mL (≈ 15.1 µM); CC50 at 72 h [30]: 4.6 µg/mL (≈ 7.73 µM); selectivity ratio [31]: 164; selectivity ratio [32]: 29; selectivity ratio [33]: 143; CC50 at 72 h [34]: 8.3 µg/mL (≈ 14 µM); CC50 at 72 h [35]: 13.4 µg/mL (≈ 22.5 µM) |
